The text below walks through data of paper PMC9821843, “Powerful Potential of Polyfluoroalkyl-Containing 4-Arylhydrazinylidenepyrazol-3-ones for Pharmaceuticals” (Molecules, 2022).

Structures are written as SMILES. Where two headings read alike, the source gives them in different places.

One series concerns Sprague-Dawley (SD) rats. As to the kind of experiment: Hot plate test (analgesic activity). Conditions: Rattus norvegicus, hot plate test, rats, ip, dose 10 mg/kg, eight independent experiments. The format is in vivo. The procedure, abridged: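 Test compounds were given i.p. as suspensions in 1% starch mucilage to SD rats (3 male, 3 female per group), vehicle as negative control. At 1 and 2 h post-dose, latency to nociceptive response (jumping, hind paw licking/shaking) on a 50 °C plate was recorded, 30 s cutoff.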

The next series relates to Sprague-Dawley rats. Nature of the series: Carrageenan-induced paw edema model (anti-inflammatory activity). The format is in vivo. Conditions: ip, dose 10 mg/kg, four independent experiments. The method, then: Anti-inflammatory activity was studied in Sprague-Dawley rats (3 male and 3 female animals per group) by using the common carrageenan-induced paw edema model. The investigated compounds in 1% starch mucilage were intraperitoneally administered at the corresponding dose to a treated group of rodents 30 min before the injection of 0.1 mL of freshly prepared 1% carrageenan (λ-carrageenan, type IV; Sigma Aldrich, an affiliate of Merck KGaA, Darmstadt, Germany) solution in the right hind paw plantar surface. The negative control group was treated with 1% starch mucilage solution only. Diclofenac sodium (10 mg/kg in 1% starch mucilage solution) was used as a reference drug. Paw volumes were measured oncometrically with water plethysmometer (TSE Volume Meter, Bad Homburg, Germany) before carrageenan administration (“zero time”) and at 1st, 3rd, 5th and 24th h after its injection. An anti-inflammatory activity of the sample at a certain time point was calculated in two steps. First, the percentage of an edema increment (i.e., relative volume change for the inflamed paw vs. “zero time” value) both in the negative control group (Pc) and in the treated group (Ptr) were calculated for this time point for each animal. The difference between treated and control group was considered significant at p < 0.05. Then, for such cases, swelling inhibition was calculated according to the formula: 100% (Pc − Ptr)/Pc and considered as a measure of anti-inflammatory activity of the sample.

A short description of series [1]: Oxygen radical absorbance capacity (ORAC-FL) assay. The conditions noted are these: n.a. = inactive; i.t.s. = interferes with test system. The gist of the method:
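Fluorescein oxidative degradation by the peroxyl radical generator AAPH is monitored in the presence of test compound, a HAT-based read-out. Activity is expressed relative to Trolox as reference antioxidant.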

The nature of series [2]: Ferric reducing antioxidant power (FRAP) assay. The conditions noted are these: 20 μM; n.a. = inactive. The source says:
The FRAP assay measures the ability of anti-oxidants to reduce the ferric 2,4,6-tripyridyl-s-triazine complex [Fe(TPTZ)2]^3+ to the intensely blue ferrous colored complex [Fe(TPTZ)2]^2+ with an absorption maximum at λ = 593 nm. The reducing ability of a compound is an indicator of its potential anti-oxidant activity. 2,4,6-Tris(pyridin-2-yl)-1,3,5-triazine (TPTZ), FeCl3·6H2O, Trolox and DMSO were obtained from Sigma-Aldrich Chemical Co (St. Louis, MO, USA).
The ferric reducing ability of the compounds was determined by the method in microplate adapted version described in [116]. The FRAP reagent was prepared by mixing acetate buffer (0.3 M, pH 3.6), TPTZ (10 mM in 40 mM HCl) and FeCl3·6H2O (20 mM in distilled water) in a ratio of 10:1:1 immediately before use. Compounds were dissolved in DMSO and tested in the concentration 20 μM. The solvent content in the reaction mixture was 4% (v/v). The test compounds (10 μL of 0.5 mM solution) were added to the FRAP reagent solution (240 μL) and mixed thoroughly. The reaction was carried out at 37 °C in the dark; the incubation time was 1 h. The absorbance at 600 nm was monitored spectrophotometrically by a FLUOStar OPTIMA microplate reader (BMG Labtech, Ortenberg, Germany) at 37 °C. Trolox was used as a reference compound. Values were obtained from four replicates of each sample in three independent experiments.
The ferric reducing ability of compounds was expressed as TE units (antioxidant activity in Trolox equivalent), the values calculated as the ratio of the concentrations of Trolox and the test compound resulting in the same effect. The calculations were carried out using Origin 6.1 for Windows. Results were presented as mean ± SEM, calculated using GraphPad Prism version 6.05 for Windows, GraphPad Software.

The nature of series [3]: ABTS radical cation scavenging activity assay. More on the design: key to ABTS•+-scavenging activity, TEAC (trolox equivalent antioxidant capacity): TEAC = ratio of compound slope to Trolox slope vs ABTS absorbance. The conditions noted are these: mean ± SEM; for ABTS•+-scavenging activity, TEAC (trolox equivalent antioxidant capacity): n.a. = inactive. The gist of the method:
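ABTS•+ (from 7 mM ABTS plus 2.45 mM persulfate) mixed with compound, 5 × 10^–7–4 × 10^–4 M, 1 h at 30 °C; absorbance decrease read at 734 nm. TEAC from slope ratio versus Trolox; IC50 as 50% radical reduction for compounds exceeding 60% reduction at 100 µM.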

Another series has as its target T1, ratTRPV1 (rTRPV1) (Rattus norvegicus, UniProt O35433).
T1 construct: expressed in transfected cells
As to the kind of experiment: TRPV1 calcium imaging in CHO cells (acid / 2APB activation). In kind it is cell-based. Conditions: 50 μM. The protocol:
Testing for receptors ratTRPA1 (rTRPA1) and ratTRPV1 (rTRPV1), stably expressed in CHO cells, was carried out using the calcium imaging method as described in [123, 124]. Fluorescence was performed using NOVOstar (BMG LABTECH, Ortenberg, Germany). The tested substances in 26% DMSO solution or 26% DMSO solution alone (negative control) (5 μL) were added to the cells loaded with the cytoplasmic calcium indicator Fluo-4AM using Fluo-4 Direct™ Calcium Assay Kit (Thermo Fisher Scientific Inc., Waltham, MA, USA) (60 μL) and incubated 5–10 min. Final DMSO concentration was 2%. Changes in cell fluorescence (λex = 485 nm, λem = 520 nm) were monitored at 25 °C before and after the addition of relevant agonist. The AITC final concentration 160 μM was used for rTRPA1 activation. For rTRPV1 activation we used (1) acid-salt buffer pH4.01 (diluted 2 times Buffer solution pH 4.01 (Mettler Toledo, Greifensee, Switzerland) containing 150 mM NaCl), (2) 2APB in 10 mM HEPES/HBSS, pH 7.4—final concentration 160 μM, or (3) 2APB in acid-salt buffer pH 4.01—final concentration 80 μM. Nonspecificity was tested on wild type CHO.
To achieve the required level of acidification, the cell medium with fluorescent dye (pH 7.4) was pre-titrated to determine the required volume of acid-salt buffer until pH 6.2 was reached. The pH level was also monitored after the test as an average of 10–12 wells. […]

T1 sequence (O35433 whole entry): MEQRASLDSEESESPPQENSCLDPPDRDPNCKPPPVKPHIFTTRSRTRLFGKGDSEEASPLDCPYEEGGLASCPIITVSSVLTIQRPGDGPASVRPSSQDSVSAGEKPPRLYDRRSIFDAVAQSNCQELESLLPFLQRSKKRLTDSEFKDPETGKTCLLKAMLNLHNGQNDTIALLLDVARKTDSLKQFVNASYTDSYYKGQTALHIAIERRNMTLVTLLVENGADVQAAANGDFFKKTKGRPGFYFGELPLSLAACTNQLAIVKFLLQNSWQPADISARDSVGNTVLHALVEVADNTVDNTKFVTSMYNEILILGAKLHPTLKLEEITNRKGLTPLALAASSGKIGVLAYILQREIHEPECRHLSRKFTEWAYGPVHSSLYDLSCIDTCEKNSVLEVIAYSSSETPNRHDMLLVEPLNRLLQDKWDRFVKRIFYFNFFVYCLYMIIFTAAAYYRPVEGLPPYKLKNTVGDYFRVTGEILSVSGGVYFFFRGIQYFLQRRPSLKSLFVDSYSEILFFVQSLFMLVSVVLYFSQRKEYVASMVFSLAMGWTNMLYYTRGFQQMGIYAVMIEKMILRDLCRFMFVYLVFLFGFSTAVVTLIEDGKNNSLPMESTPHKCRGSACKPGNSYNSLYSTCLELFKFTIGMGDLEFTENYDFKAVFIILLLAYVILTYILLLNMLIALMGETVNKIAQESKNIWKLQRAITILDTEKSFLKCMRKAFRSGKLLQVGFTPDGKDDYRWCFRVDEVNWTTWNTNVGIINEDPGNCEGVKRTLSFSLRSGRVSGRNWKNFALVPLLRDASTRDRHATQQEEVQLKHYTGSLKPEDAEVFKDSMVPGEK

Take `O=C(O)Cc1ccccc1Nc1c(Cl)cccc1Cl` [Diclofenac, reference compound]: the change in vivo at 10 mg/kg with Sprague-Dawley (SD) rats (1 h, read-out: Latent Period Prolongation, % 1 h) amounted to 63.5 ± 18.2%. Further, the change in vivo at 10 mg/kg in the series with Sprague-Dawley (SD) rats (2 h, read-out: Latent Period Prolongation, % 2 h) was 70 ± 20.8%. In the series on Sprague-Dawley rats, the “Inhibition of Paw Edema Development Comparing to Control, after 1 h” value is 35.6 ± 5.8 ^1%; the “Inhibition of Paw Edema Development Comparing to Control, after 3 h” value is on record as 54.3 ± 12.1 ^1%; the “Inhibition of Paw Edema Development Comparing to Control, after 5 h” value is 46.2 ± 13.2 ^1%.
For `CC1=NN(c2ccccc2)C(=O)C1` [Edaravone, reference compound], the “ORAC-FL (TE, antioxidant activity in Trolox equivalents)” value in series [1] worked out at 3.71 ± 0.06. Further, the “FRAP (TE, antioxidant activity in Trolox equivalents)” value in series [2] turned out to be 0.80 ± 0.01. Further, in series [3], the IC50 is 21.4 ± 1.8 µM and the “ABTS•+-scavenging activity, TEAC (trolox equivalent antioxidant capacity)” value was determined as 0.96 ± 0.04.
Compound `Cc1ccc(N/N=C2\C(=O)N(c3ccc(C)cc3)N=C2C(F)(F)C(F)(F)F)cc1` came in with a melting point of 165 to 166 °C.
For `Cc1c(C)c2c(c(C)c1O)CCC(C)(C(=O)O)O2` (stereo not drawn) [Trolox, 6-hydroxy-2,5,7,8-tetramethychroman-2-carboxylic acid, reference compound], in series [1], the “ORAC-FL (TE, antioxidant activity in Trolox equivalents)” value worked out at 1.0. Further, the “FRAP (TE, antioxidant activity in Trolox equivalents)” value in series [2] is given as 1.0. Besides, in series [3], the IC50 was found to be 19.7 ± 0.8 µM and the “ABTS•+-scavenging activity, TEAC (trolox equivalent antioxidant capacity)” value was found to be 1.0.
`Oc1cc2c(cc1O)CN(C(=S)NCCc1ccc(Cl)cc1)CCC2` [capsazepine]: at ratTRPV1 (rTRPV1), the “inhibition of the increase in intracellular Ca2+ (TRPV1 activation by acidic solution or 160 μM 2APB)” value is on record as “effectively inhibited”.
